Data on 68 molecules can be found in PubChem BioAssay AID1549 (Sanford-Burnham Center for Chemical Genomics, 2009).

As a reminder, the Kd is the concentration at which binding is half-saturated.

Active and inactive are the calls of the source. No rule for the calls is given here.

This test has as its target Influenza A virus M2 proton channel (A/TW/4845/1999 H1N1). Kind of test: NMR binding screen, influenza A virus M2 proton channel, Kd (AID 1549). To be noted: M2 protein.
As to `Clc1ncc2[nH]cnc2n1`, the Kd was > 4 mM (inactive).
As to `Cc1cc(=O)n2ncn(Cc3ccccc3)c2n1`, the Kd is > 4 mM (inactive).
For `O=C(Nc1ccc2c(c1)OCO2)c1cccs1`, the Kd was > 4 mM (inactive).
As for `Cc1nc2ccc(NC(=O)N3CCOCC3)cc2s1`, the figure is > 4 mM (inactive); as for `O=C1N=c2ccccc2=C1c1sc(=S)[nH]c1O`, > 4 mM (inactive); as for `CCC(C)C(=O)OC1[C@@H]2CC3=C4CC(=O)O[C@@H](c5ccoc5)[C@]4(C)CCC3C(C)(C2=O)[C@@H](CC(=O)OC)C1(C)C` (stereo partly drawn), > 4 mM (inactive).
As for `O=C(O)c1cc(O)c2c(c1)[C@@H]([C@H]1c3cc(C(=O)O)cc(O)c3C(=O)c3c(O[C@H]4O[C@H](CO)[C@@H](O)[C@H](O)[C@H]4O)cccc31)c1cccc(O[C@H]3O[C@H](CO)[C@@H](O)[C@H](O)[C@H]3O)c1C2=O`, the figure is > 4 mM (inactive).
Take `O=C1CSC(=S)N1N1C(=O)C2C3C=CC(C3)C2C1=O` (stereo not drawn): the Kd was > 4 mM (inactive).
As for `CCn1c(-c2c[nH]c3ccccc23)n[nH]c1=S`, the figure is > 4 mM (inactive); as for `Cc1cc(C(=O)Nc2nnc(C(F)(F)F)s2)no1`, > 4 mM (inactive).
Consider `CNC(=O)c1ccc([N+](=O)[O-])cc1Cl`, for which the Kd is > 4 mM (inactive).
As for `CNC(=S)Nc1ccc(C(=O)O)cc1`, the figure is > 4 mM (inactive).
As for `O=C1CC(=O)N(c2cccc(Cl)c2)N1`, the Kd was > 4 mM (inactive).
As to `Cn1nc(C(=O)Nc2cccnc2)cc1Cl`, the Kd is > 4 mM (inactive).
The value for `O=C(O)c1cn(-c2ccccc2)nc1-c1ccncc1` was > 4 mM (inactive); that for `CC(C)CC(=O)NC1CCSC1=O` (stereo not drawn) was > 4 mM (inactive); that for `Oc1ccccc1N1CCOCC1` was > 4 mM (inactive).
On to `O=C1CCc2ccccc2CN1`, for which the Kd was > 4 mM (inactive).
Turning to `S=c1nc(C2CC2)[nH]c2ccccc12`, the Kd is > 4 mM (inactive).
Regarding `Oc1ccccc1C(=S)N1CCCCCC1`, the Kd was > 4 mM (inactive).
As for `Cc1cc(C)nc(/N=C(/N)Nc2cccc(F)c2)n1`, the figure is > 4 mM (inactive); as for `O=C(Cc1c(F)cccc1Cl)Nc1ccon1`, > 4 mM (inactive).
The value for `Cc1ccc(C)n1NC(=O)c1cccs1` was > 4 mM (inactive).
As for `CC(=O)N1CCN(C2CCSC2)CC1` (stereo not drawn), the figure is > 4 mM (inactive); as for `O=C(O)[C@H](O)[C@@](O)(Cc1ccc(O)cc1)C(=O)O`, > 4 mM (inactive); as for `COC(=O)Cc1csc(N)n1`, > 4 mM (inactive).
For the molecule `Cc1ccc(C(=O)NCCO)c(Cl)c1`, the Kd was > 4 mM (inactive).
The value for `O=c1c[n+]([O-])c2ccccc2n1OCc1ccccc1` was > 4 mM (inactive); that for `O=c1n(-c2ccccc2)c(=O)n2n1CCCC2` was > 4 mM (inactive).
The value for `NC(=O)c1ccsc1NC(=O)c1cccnc1` was > 4 mM (inactive).
The value for `NNC(=O)c1ccccc1-n1cccc1` was > 4 mM (inactive); that for `C/C=C(/C)C(=O)O[C@@H]1Cc2c(ccc3ccc(=O)oc23)OC1(C)C` was > 4 mM (inactive); that for `Cc1nc2ccc(NC(=O)N3CCSCC3)cc2s1` was > 4 mM (inactive).
Regarding `O=C(NCc1cccc(Cl)c1)c1cnccn1`, the Kd was > 4 mM (inactive).
The value for `c1ccc(-n2nnnc2Oc2cccc3cccnc23)cc1` was > 4 mM (inactive).
With `Cc1c(CO)cnn1-c1ccccc1`, the Kd is > 4 mM (inactive).
As for `O=C(O)c1ccc(NC(=O)c2cccs2)cc1`, the figure is > 4 mM (inactive); as for `O=C(c1ccco1)N1CCNCC1`, > 4 mM (inactive); as for `O=C(CSc1ccnc(=O)[nH]1)NCc1ccccc1`, > 4 mM (inactive).
Take `C[C@H]1O[C@@H](O[C@H]2[C@@H](O)C[C@H](O[C@H]3[C@@H](O)C[C@H](O[C@H]4CC[C@]5(C)C6C[C@@H](O)[C@]7(C)[C@@H](C8=CC(=O)OC8)CC[C@]7(O)C6CC[C@@H]5C4)O[C@@H]3C)O[C@@H]2C)C[C@H](O)[C@@H]1O` (stereo partly drawn): the Kd is > 4 mM (inactive).
As for `Cc1c(C(=O)Nc2ccccc2)sc(N)c1C(N)=O`, the figure is > 4 mM (inactive).
The value for `Cn1nc(-c2cccs2)cc1N` was > 4 mM (inactive).
As for `OCc1ccc2c(c1)OCO2`, the figure is > 4 mM (inactive).
On to `CC(C)[C@@H]1CC[C@@H](C)CC1=O`, for which the Kd is > 4 mM (inactive).
For `O=C1Nc2ccccc2C1C1(O)C(=O)Nc2ccc(F)cc21` (stereo not drawn), the Kd is > 4 mM (inactive).
As for `COc1ccccc1C(=O)Nc1ccccn1`, the figure is > 4 mM (inactive); as for `C/C=C(\C)c1nnc(NC(=O)c2ccco2)s1`, > 4 mM (inactive); as for `CCOC(=O)c1c(C)nc2sccn12`, > 4 mM (inactive).
`O=[N+]([O-])c1c[n+]([O-])n(-c2ccccc2)n1`: the Kd was > 4 mM (inactive).
The value for `CCOc1cc(S(=O)(=O)n2nc(C)cc2C)ccc1F` was > 4 mM (inactive); that for `Nc1nnc(SCc2ccc(F)cc2)s1` was > 4 mM (inactive); that for `CC(C)=CCCC1(C)C=Cc2c(O)c3c(c(CC=C(C)C)c2O1)OC12C(=CC4CC1C(C)(C)OC2(C/C=C(/C)C(=O)O)C4O)C3=O` (stereo not drawn) was > 4 mM (inactive).
Take `CC(=O)Oc1ccc2c(c1C(C)C)CCC1C(C)(C)CCC[C@]21C` (stereo partly drawn): the Kd was > 4 mM (inactive).
In the case of `CC(=O)c1ccc(N2C(=O)C(C(C)C)NC2=S)cc1` (stereo not drawn), the Kd is > 4 mM (inactive).
The value for `CC(=O)N/N=C(\C)c1cccc(N)c1` was > 4 mM (inactive); that for `Cc1cc(=O)oc2c1c(C)nn2CN1CCN(C)CC1` was > 4 mM (inactive).
As for `NCc1cccc2c1OCCCO2`, the figure is > 4 mM (inactive).
In the case of `O=C(Nn1cnnc1)c1ccccc1-c1ccccc1`, the Kd was > 4 mM (inactive).
The value for `C[C@@H]1O[C@@H](O[C@H]2[C@H](Oc3cc(O)c4c(=O)cc(-c5ccc(O)cc5)oc4c3)O[C@H](CO)[C@@H](O)[C@@H]2O)[C@H](O)[C@H](O)[C@H]1O` was > 4 mM (inactive).
With `O=C(c1ccncc1)N1CCN(C(=O)c2ccco2)CC1`, the Kd was > 4 mM (inactive).
Turning to `O=C(c1ccc(F)cc1)N1CCOCC1`, the Kd is > 4 mM (inactive).
In the case of `CN(C)c1n[nH]c(=O)[nH]c1=O`, the Kd is > 4 mM (inactive).
As for `C[C@@H]1OC(O[C@H]2C(O[C@H]3CC[C@@]4(C)C(CC[C@]5(C)C4CC=C4C6CC(C)(C)CC[C@]6(C(=O)O)CC[C@]45C)[C@]3(C)CO)OC[C@H](O)[C@@H]2O)[C@H](O)[C@H](O)[C@H]1O` (stereo partly drawn), the figure is > 4 mM (inactive).
The value for `Cn1ncc(CO)c1-c1ccccc1` was > 4 mM (inactive); that for `COc1cc2nc(N3CCNCC3)nc(N)c2cc1OC` was > 4 mM (inactive); that for `CC1(C)CC[C@]2(C)CC[C@]3(C)C(=CCC4[C@@]5(C)CC[C@H](O)C(C)(C)C5CC[C@]43C)C2C1` (stereo partly drawn) was > 4 mM (inactive).
The value for `CC(=O)Nc1cccc(NC(=O)c2cccnc2)c1` was > 4 mM (inactive); that for `O=C1CSC(=O)N1c1cccc(O)c1` was > 4 mM (inactive).
